The text below walks through data of patent US6361998B1, “Efficient culture of stem cells for the production of hemoglobin” (Hemosol Inc., priority 1999, dated 2002).

In assay [1] the test system is CD34^+ enriched cells. The assay can be described thus: Addition of SA and hemin to EPSFM+LDL culture of CD34+ enriched cells, Hb content. The format is cell-based, human. As to conditions: at culture termination; SA 25 uM; hemin (if any) 25 uM at initiation of culture. Here is the method:
CD34^+ enriched cells were isolated and cultured in EPSFM+LDL as described in Example 1. In some samples, SA was added to EPSFM+LDL to a final concentration of 25 uM. In some instances, hemin was added to the SA containing cultures to a final hemin concentration of 25 uM. Hemin was added to some SA containing cultures at the initiation of culture and to others after 15 days of culture. The addition of SA, an inhibitor of heme synthesis, to EPSFM+LDL increased the fold expansion of cells obtained but reduced the percentage of GlyA^+ cells and the Hb content of these cells (Table 10). The low hemoglobin content was ameliorated by the addition of hemin to EPSFM+LDL+SA at the initiation of culture. However, as the percentage of GlyA^+ cells was decreased in this instance, the total amount of Hb per culture is similar to that observed with culture in EPSFM+LDL alone. The addition of hemin after 15 days of culture, instead of at culture initiation, further increased the fold expansion without reducing the percentage of GlyA^+ cells. Unexpectedly, the amount of hemoglobin per cell increased to approximately that obtained with EPSFM+LDL.

Assay [2] concerns CD34^+ enriched cells. Nature of the assay: Expansion and differentiation of CD34+ enriched cells with SA added to EPSFM+LDL. The format is cell-based, human. Here is the method: CD34^+ enriched cells were isolated and cultured as described in Example 1. Succinylacetone (SA), a heme synthesis inhibitor, was added to EPSFM+LDL at concentrations of 25 to 250 uM at the initiation of culture. Results are depicted in Table 4 and FIGS. 4 to 6. The addition of 50 uM SA to EPSFM+LDL increased cell expansion 8-fold when compared to controls without SA (FIG. 4).

Assay [3] deals with CD34^+ enriched cells from human umbilical cord blood LDMNC. The assay can be described thus: Expansion and differentiation of CD34+ enriched cells in serum-free suspension culture. The format is cell-based. The settings on record: hemin added to defined culture medium (25 uM, FIG. 3). On the procedure: CD34^+ cells were enriched from human umbilical cord blood LDMNC by lineage depletion of cells expressing CD3, CD14, CD16, CD19, CD24, CD56, CD66b and glycophorin A (GlyA) to enrich lin^− cells. The viability of CD34^+ cells pre- and post-enrichment was determined by trypan-blue dye exclusion and cells were characterized for CD34 and CD45 co-expression by standard flow cytometry methods (see Table 2, FIG. 1).
CD34^+ cells were cultured at an initial seeding density of 1-2×10^4 cells/ml in EPSFM+LDL with the composition described in Table 1B. […]
At the end of 30 days in culture cells were fully differentiated erythroid cells with 57% of the cells staining positively with benzidine and 85% of the cells expressing the erythroid-specific membrane glycoprotein glycophorin A (GlyA). […] The amount of hemoglobin per cell was determined to be 5.2 pg using Western blot analysis. […]
CD34^+ enriched cells were cultured for 7 to 11 days, as described in Example 1. […] Fewer than 2% of the cells expressed CD34, and hematopoietic progenitors were present at a frequency of 21 BFU-E, 33 CFU-E and 25 CFU-GM per 1×10^5 cells as detected in methylcellulose colony forming assay. […] Field strength, capacitance, and pulse width were optimized to achieve an average transfection efficiency of approximately 20% as measured at 24 hours post-electroporation.

Assay [4] has as its system BaF3 cells. The assay can be described thus: Cytokine-dependency growth of BaF3 cells transfected with human EpoR constructs. The format is cell-based, murine. As to conditions: for growth of BaF3 transfectants: no exogenous IL-3. Here is the method:
The functionality of the EpoR(t439; R154C) was tested and compared to the wild-type EpoR (wtEpoR) and EpoR(t439) using the BaF3 cell line. The cDNAs encoding these three different EpoRs were subcloned into the pcDNA3.1 expression vector, which provides high-level constitutive expression of proteins in mammalian cells and also contains the neomycin gene for the selection of stable transfectant with G418. The vector constructs were electroporated into BaF3 cells and stable transfectants were isolated in the presence of 600 ug/ml G418. BaF3 transfectants were maintained in RPMI-1640 with 10% FBS and 5% WEHI conditioned medium (a source of murine IL-3), except during the cytokine-dependency studies when cells were maintained in RPMI-1640 plus 10% FBS, along with the indicated cytokines. Growth of the different EpoR transfectants in the presence of either murine IL-3 or two different doses of Epo was compared to that of the parental (non-transfected) BaF3 cells (FIG. 7). […] All three EpoR constructs encode functional receptors that allow expansion of the BaF3 cells in the presence of Epo without exogenous IL-3.

For assay [5], the system named is BaF3 cells. As to conditions: cited from earlier work.

For the molecule `CC(=O)CC(=O)CCC(=O)O` [SA, Succinylacetone], in the assay on CD34^+ enriched cells [1], the “% GlyA positive cells” value came out at 74%, the “Hb per GlyA^+ cell” value was determined as 0.95 pg/cell, the “Total Hb per culture” value came out at 0.03 g and the “Total number of GlyA^+ cells” value is 2.9 × 10^10. In the assay with CD34^+ enriched cells [1], the “Total number of cells” value was 3.9 × 10^10. For the same molecule, in the assay on CD34^+ enriched cells [2] (25 uM SA added to EPSFM + LDL), the “Total fold expansion (n = 3)” value is 6.36 × 10^6. Further, in the assay on CD34^+ enriched cells [2] (50 uM SA added to EPSFM + LDL), the “Total fold expansion (n = 3)” value is given as 2.89 × 10^7. Also, in the assay with CD34^+ enriched cells [2] (50 uM SA in EPSFM+LDL), the “increase in cell expansion compared to controls without SA” value came to 8 fold. In addition, the “suppression of BZ staining and GlyA expression” value in the assay on CD34^+ enriched cells [2] (250 uM SA) is “Maximum suppression”. Moreover, the “Total fold expansion (n = 3)” value in the assay on CD34^+ enriched cells [2] (250 uM SA added to EPSFM + LDL) is 6.77 × 10^6. In addition, in the assay with CD34^+ enriched cells [2] (SA removed after at least 20 days of culture, by the following passage), the “percentages of BZ+ and GlyA+ cells after SA removal” value was “increased significantly”. Further, the “erythroid differentiation (percentages of BZ+ and GlyA+ cells)” value in the assay with CD34^+ enriched cells [2] (increasing amounts of SA (25 to 250 uM)) is listed as “reduced erythroid differentiation”.

For hemin, the “effect of hemin addition on Hb content, number of GlyA cells and BZ positive cells” value in assay [3] is “did not substantially increase”.

B1: EpoR: full length wild-type human erythropoietin receptor (protein)
chain: APPPNLPDPKFESKAALLAARGPEELLCFTERLEDLVCFWEEAASAGVGPGNYSFSYQLEDEPWKLCRLHQAPTARGAVRFWCSLPTADTSSFVPLELRVTAASGAPRYHRVIHINEVVLLDAPVGLVARLADESGHVVLRWLPPPETPMTSHIRYEVDVSAGNGAGSVQRVEILEGRTECVLSNLRGRTRYTFAVRARMAEPSFGGFWSAWSEPVSLLTPSDLDPLILTLSLILVVILVLLTVLALLSHRRALKQKIWPGIPSPESEFEGLFTTHKGNFQLWLYQNDGCLWWSPCTPFTEDPPASLEVLSERCWGTMQAVEPGTDDEGPLLEPVGSEHAQDTYLVLDKWLLPRNPPSEDLPGPGGSVDIVAMDEGSEASSCSSALASKPSPEGASAASFEYTILDPSSQLLRPWTLCPELPPTPPHLKYLYLVVSDSGISTDYSSGDSQGAQGGLSDGPYSNPYENSLIPAAEPLPPSYVACS
As for B1, the “growth of BaF3 transfectants” value is given as “did not grow” in the assay with BaF3 cells [4] (0.02 U/ml Epo) and “grew in the presence of 2 U/ml Epo alone” in the assay with BaF3 cells [4] (2 U/ml Epo).

B2: truncated EpoR: murine EpoR with C-terminal 42 amino acids replaced with Ala-Leu (Yoshimura 1990) (protein, listed as Homo sapiens)
chain: MDHLGASLWPQVGSLCLLLAGAAWAPPPNLPDPKFESKAALLAARGPEELLCFTERLEDLVCFWEEAASAGVGPGNYSFSYQLEDEPWKLCRLHQAPTARGAVRFWCSLPTADTSSFVPLELRVTAASGAPRYHRVIHINEVVLLDAPVGLVARLADESGHVVLRWLPPPETPMTSHIRYEVDVSAGNGAGSVQRVEILEGRTECVLSNLRGRTRYTFAVRARMAEPSFGGFWSAWSEPVSLLTPSDLDPLILTLSLILVVILVLLTVLALLSHRRALKQKIWPGIPSPESEFEGLFTTHKGNFQLWLYQNDGCLWWSPCTPFTEDPPASLEVLSERCWGTMQAVEPGTDDEGPLLEPVGSEHAQDTYLVLDKWLLPRNPPSEDLPGPGGSVDIVAMDEGSEASSCSSALASKPSPEGASAASFEYTILDPSSQLLRP
On to B2, for which the “responsiveness to Epo relative to the wild-type EpoR” value in the assay with BaF3 cells [5] (murine EpoR, C-terminal 42 amino acids replaced with Ala-Leu, expressed in BaF3 cells) is reported as 3-5 times.

B3: EpoR(t439): human EpoR truncated at Trp439; hypersensitive to Epo (SEQ ID NOS 4 and 5) (protein, listed as Homo sapiens)
chain: MDHLGASLWPQVGSLCLLLAGAAWAPPPNLPDPKFESKAALLAARGPEELLCFTERLEDLVCFWEEAASAGVGPGNYSFSYQLEDEPWKLCRLHQAPTARGAVRFWCSLPTADTSSFVPLELRVTAASGAPRYHRVIHINEVVLLDAPVGLVARLADESGHVVLRWLPPPETPMTSHIRYEVDVSAGNGAGSVQRVEILEGRTECVLSNLRGRTRYTFAVRARMAEPSFGGFWSAWSEPVSLLTPSDLDPLILTLSLILVVILVLLTVLALLSHRRALKQKIWPGIPSPESEFEGLFTTHKGNFQLWLYQNDGCLWWSPCTPFTEDPPASLEVLSERCWGTMQAVEPGTDDEGPLLEPVGSEHAQDTYLVLDKWLLPRNPPSEDLPGPGGSVDIVAMDEGSEASSCSSALASKPSPEGASAASFEYTILDPSSQLLRP
With B3, the “growth of BaF3 transfectants” value in the assay on BaF3 cells [4] (0.02 U/ml Epo) and with BaF3 cells [4] (2 U/ml Epo) was “grew equally well” in each case. Besides, the “expansion of BaF3 cells” value in the assay on BaF3 cells [4] (absence of exogenous cytokines) was “did not support cell expansion”. For the same molecule, the “functionality of the EpoR” value with BaF3 cells [4] (conclusion from BaF3 growth) is “functional and hypersensitive to Epo”.

B4: EpoR(R129C): murine EpoR with Arg129 replaced by Cys, constitutively active (literature) (protein, UniProt P14753 25-507, looked up, variant R129C)
Erythropoietin receptor: APSPSLPDPKFESKAALLASRGSEELLCFTQRLEDLVCFWEEAASSGMDFNYSFSYQLEGESRKSCSLHQAPTVRGSVRFWCSLPTADTSSFVPLELQVTEASGSPRYHRIIHINEVVLLDAPAGLLACRAEEGSHVVLRWLPPPGAPMTTHIRYEVDVSAGNRAGGTQRVEVLEGRTECVLSNLRGGTRYTFAVRARMAEPSFSGFWSAWSEPASLLTASDLDPLILTLSLILVLISLLLTVLALLSHRRTLQQKIWPGIPSPESEFEGLFTTHKGNFQLWLLQRDGCLWWSPGSSFPEDPPAHLEVLSEPRWAVTQAGDPGADDEGPLLEPVGSEHAQDTYLVLDKWLLPRTPCSENLSGPGGSVDPVTMDEASETSSCPSDLASKPRPEGTSPSSFEYTILDPSSQLLCPRALPPELPPTPPHLKYLYLVVSDSGISTDYSSGGSQGVHGDSSDGPYSHPYENSLVPDSEPLHPGYVACS
With B4, the “cytokine dependence of BaF3 cell growth” value in the assay with BaF3 cells [5] (over-expression of murine EpoR(R129C)) is “permits cytokine-independent growth of BaF3 cells”.
